How the values were obtained:
[1] = biological target: T1, PTBP1 (Homo sapiens, UniProt P26599); experiment: Pulldown assay of UPCP and PTBP1; format: binding; conditions: pulldown (and MST); His-UPCP 10 μg with Flag beads-PTBP1, 16 h at 4 °C
T1 construct: made in house
Description: Cells were harvested and lysed in buffer A mixed with protease inhibitor cocktail tablet (Roche) after 48 h. […] The beads were washed three times using 1× Tris saline buffer (50 mM Tris-HCl (pH 7.4) and 150 mM NaCl)) for 8 min each. The bound proteins BUBR1 or PTBP1 were eluted with 3×Flag peptide (ApexBio) for 2 h at 4 °C. Finally, BUBR1 or PTBP1 was concentrated and recovered by using the Centrifugal Filters (Amicon Ultra).
A detailed description of the pulldown assay was described previously. His-UPCP fusion protein was expression in bacteria (BL21) and induced with 0.5 mM isopropyl-β-D-thio-galactoside for 16 h at 16 °C. The bacteria were harvested and lysed in TEN buffer (20 mM Tris-HCl (pH7.4), 0.1mM EDTA, 100 mM NaCl). […] His-UPCP was eluted with Imidazole eluent (50 mM NaH2PO4, 300 mM NaCl and 50 mM Imidazole) for 2 h at 4 °C and concentrated and recovered using centrifugal filters (Amicon Ultra). For the pulldown of His-UPCP and Flag-BUBR1 or Flag-PTBP1, 10 μg His-UPCP was incubated with Flag beads (Biotool, catalog no. B23102), Flag beads-BUBR1 or Flag beads-PTBP1 respectively for 16 h at 4 °C. The beads were washed three times with PBS and added to 1× loading buffer for western blot.

[2] = tested on: HGADFN167 cells; experiment: SA-β-gal staining of HGADFN167 cells; format: cell-based, human
Description: SA-β-gal staining was performed as previously described. Cells were fixed in 0.5% glutaraldehyde for 15 min at room temperature, washed three times with PBS (pH 6.0) containing 1 mM MgCl2 and exposed overnight 37 °C to containing 1 mg ml^–1 5-bromo-4-chloro-3-indolyl-β-D-galactopyranoside (MCE, catalog no. HY-15934), 0.12 mM potassium ferrocyanide (Sigma, catalog no. P3289), 0.12 mM potassium ferricyanide (Sigma, catalog no. P8131) and 1 mM MgCl2 PBS buffer (pH 6.0). Cells were washed three times with H2O and observed under a microscope (OLYMPUS CKX53). SA-β-gal positive cells were quantified by investigators who were blinded to the identity of the analyzed cell.

[3] = tested on: Lmna^G609G/G609G mice; experiment: Survival (Kaplan–Meier) of Lmna^G609G/G609G mice; format: in vivo, mouse
From the text: All animal experiments were approved by the Ethics Committee of School of Life Sciences, Northeast Normal University, China (AP20191011) and carried out in accordance with the relevant guidelines: National Standards of the People’s Republic of China (GB/T 35892–2018), Laboratory Animal—Guideline for Ethical Review of Animal Welfare. We generated a mouse model (ICR background), carrying the Lmna^G609G using the BE4-Gam system. The protocols for the BE4-Gam system and microinjection of pronuclear-stage embryos have been described in detail previously[37],[38],[59]. Briefly, a mixture of BE4-Gam mRNA (200 ng μl^–1) and sgRNA-Lmna (30 ng μl^–1) was coinjected into the cytoplasm of pronuclear-stage embryos of the mouse. The injected embryos were transferred to embryo culture medium for 30–60 min, followed by transferring the injected embryos into the recipient mother. The embryos continued to develop and the founder mice (referred to as F0) were born: wild-type mice (Lmna^+/+), heterozygous mice (Lmna^G609G/+) and homozygous mice (Lmna^G609G/G609G). F1 heterozygous mice (Lmna^G609G/+) were obtained by crossing F0 heterozygous mice (Lmna^G609G/+). F2 homozygous mice (Lmna^G609G/G609G) were obtained by crossing F1 heterozygous mice (Lmna^G609G/+). We selected F2 mice (Lmna^+/+ and Lmna^G609G/G609G) for subsequent experiments. The mice were housed with a 12-h light/dark cycle (6:00 to 18:00) in a 20 °C and 40% humidity-controlled room. Water and rodent feed were fed ad libitum.
For UPCP injection, 14-day-old Lmna^G609G/G609G mice were injected intraperitoneally with either PBS or UPCP (20 mg kg^–1, every other day) and wild-type mice were injected with PBS. All phenotypic analyses were performed after 12 weeks of treatment with UPCP. Bodyweight and lifespan were monitored after UPCP treatment. The survival rate was analyzed by the Kaplan–Meier method. We only included mice that were of sufficient bodyweight at the start of the experiment, typically at least 80% of the average littermate weight of the same sex and genotype. All animals meeting criteria for inclusion were then divided randomly into three groups according to genotype (Lmna^+/+, Lmna^G609G/G609G-Mock and Lmna^G609G/G609G-UPCP).

T1 sequence (P26599 whole entry): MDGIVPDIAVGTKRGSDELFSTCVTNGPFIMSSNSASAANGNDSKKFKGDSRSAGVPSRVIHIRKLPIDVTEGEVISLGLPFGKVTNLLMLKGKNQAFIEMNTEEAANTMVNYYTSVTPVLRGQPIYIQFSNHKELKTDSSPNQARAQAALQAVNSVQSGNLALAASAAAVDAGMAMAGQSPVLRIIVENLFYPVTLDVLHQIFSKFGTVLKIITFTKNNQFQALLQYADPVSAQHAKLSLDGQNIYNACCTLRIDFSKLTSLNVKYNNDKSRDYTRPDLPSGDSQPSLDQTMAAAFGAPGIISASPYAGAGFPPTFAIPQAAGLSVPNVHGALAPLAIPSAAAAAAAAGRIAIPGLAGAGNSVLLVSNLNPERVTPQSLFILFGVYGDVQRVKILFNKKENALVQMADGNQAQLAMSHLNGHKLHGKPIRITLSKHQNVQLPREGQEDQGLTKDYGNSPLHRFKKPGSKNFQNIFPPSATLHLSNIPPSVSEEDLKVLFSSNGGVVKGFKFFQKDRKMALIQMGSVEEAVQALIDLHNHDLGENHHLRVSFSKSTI

For “H-YGRKKRRQRRRYNLRSRTVLCGTCGQPADKASASGSGAQSPQNCSIM-OH (cysteines drawn unpaired) [UPCP, unique progerin C-terminal peptide]”, the “combination with PTBP1” value [1] was “combined with PTBP1”, the SA-β-gal positive cells ([2]; HGADFN167, replicate 1) was 24% and the SA-β-gal positive cells ([2]; HGADFN167, replicate 2) was 26%. For the same substance, the SA-β-gal positive cells ([2]; HGADFN167, replicate 3) was 20%, the mean survival ([3]; 20 mg kg^–1 i.p. every other day from 14 days of age, PBS 100.9 days) was 118.6 days and the median survival ([3]; 20 mg kg^–1 i.p. every other day from 14 days of age, n = 15 UPCP vs n = 17 PBS (100 days)) was 117 days. For the same substance, the individual survival ([3]; 20 mg kg^–1 i.p. every other day, female, individual 1 of 9) was 103 days, the individual survival ([3]; 20 mg kg^–1 i.p. every other day, female, individual 2 of 9) was 110 days and the individual survival ([3]; 20 mg kg^–1 i.p. every other day, female, individual 3 of 9) was 110 days. It also gave an individual survival ([3]; 20 mg kg^–1 i.p. every other day, female, individual 4 of 9) of 111 days, an individual survival ([3]; 20 mg kg^–1 i.p. every other day, female, individual 5 of 9) of 117 days and an individual survival ([3]; 20 mg kg^–1 i.p. every other day, female, individual 6 of 9) of 126 days. For the same substance, the individual survival ([3]; 20 mg kg^–1 i.p. every other day, female, individual 7 of 9) was 128 days, the individual survival ([3]; 20 mg kg^–1 i.p. every other day, female, individual 8 of 9) was 130 days and the individual survival ([3]; 20 mg kg^–1 i.p. every other day, female, individual 9 of 9) was 136 days. It also gave an individual survival ([3]; 20 mg kg^–1 i.p. every other day, male, individual 1 of 6) of 104 days, an individual survival ([3]; 20 mg kg^–1 i.p. every other day, male, individual 2 of 6) of 106 days and an individual survival ([3]; 20 mg kg^–1 i.p. every other day, male, individual 3 of 6) of 116 days. For the same substance, the individual survival ([3]; 20 mg kg^–1 i.p. every other day, male, individual 4 of 6) was 118 days, the individual survival ([3]; 20 mg kg^–1 i.p. every other day, male, individual 5 of 6) was 129 days and the individual survival ([3]; 20 mg kg^–1 i.p. every other day, male, individual 6 of 6) was 135 days. For the same substance, the “increase in lifespan (median survival)” value ([3]; 20 mg kg^–1 i.p. every other day, vs PBS-treated mice) was 17%.
